# Source: ChEMBL document CHEMBL5661975, “Discovery and pharmacologic characterization of CP-724,714, a selective ErbB2 tyrosine kinase inhibitor” (Cancer Res, 2007)
# Activity calls are given as the source filed them. The calls are words filed in the database; no cut-off is given here.
# Assays:
# EFM-19 = assay: Antiproliferative activity against human EFM-19 cells assessed as inhibition of cell growth; format: functional, cell-based
# SK-BR-3 = assay: Antiproliferative activity against human SK-BR-3 cells assessed as inhibition of cell growth; format: functional, cell-based
# [1] = biological target: T1, Receptor tyrosine-protein kinase erbB-2 (Homo sapiens, UniProt P04626); assay: Inhibition of human recombinant intracellular domain of erbB2; format: cell-based
# T1 sequence (P04626 whole entry, the tested form may be a part): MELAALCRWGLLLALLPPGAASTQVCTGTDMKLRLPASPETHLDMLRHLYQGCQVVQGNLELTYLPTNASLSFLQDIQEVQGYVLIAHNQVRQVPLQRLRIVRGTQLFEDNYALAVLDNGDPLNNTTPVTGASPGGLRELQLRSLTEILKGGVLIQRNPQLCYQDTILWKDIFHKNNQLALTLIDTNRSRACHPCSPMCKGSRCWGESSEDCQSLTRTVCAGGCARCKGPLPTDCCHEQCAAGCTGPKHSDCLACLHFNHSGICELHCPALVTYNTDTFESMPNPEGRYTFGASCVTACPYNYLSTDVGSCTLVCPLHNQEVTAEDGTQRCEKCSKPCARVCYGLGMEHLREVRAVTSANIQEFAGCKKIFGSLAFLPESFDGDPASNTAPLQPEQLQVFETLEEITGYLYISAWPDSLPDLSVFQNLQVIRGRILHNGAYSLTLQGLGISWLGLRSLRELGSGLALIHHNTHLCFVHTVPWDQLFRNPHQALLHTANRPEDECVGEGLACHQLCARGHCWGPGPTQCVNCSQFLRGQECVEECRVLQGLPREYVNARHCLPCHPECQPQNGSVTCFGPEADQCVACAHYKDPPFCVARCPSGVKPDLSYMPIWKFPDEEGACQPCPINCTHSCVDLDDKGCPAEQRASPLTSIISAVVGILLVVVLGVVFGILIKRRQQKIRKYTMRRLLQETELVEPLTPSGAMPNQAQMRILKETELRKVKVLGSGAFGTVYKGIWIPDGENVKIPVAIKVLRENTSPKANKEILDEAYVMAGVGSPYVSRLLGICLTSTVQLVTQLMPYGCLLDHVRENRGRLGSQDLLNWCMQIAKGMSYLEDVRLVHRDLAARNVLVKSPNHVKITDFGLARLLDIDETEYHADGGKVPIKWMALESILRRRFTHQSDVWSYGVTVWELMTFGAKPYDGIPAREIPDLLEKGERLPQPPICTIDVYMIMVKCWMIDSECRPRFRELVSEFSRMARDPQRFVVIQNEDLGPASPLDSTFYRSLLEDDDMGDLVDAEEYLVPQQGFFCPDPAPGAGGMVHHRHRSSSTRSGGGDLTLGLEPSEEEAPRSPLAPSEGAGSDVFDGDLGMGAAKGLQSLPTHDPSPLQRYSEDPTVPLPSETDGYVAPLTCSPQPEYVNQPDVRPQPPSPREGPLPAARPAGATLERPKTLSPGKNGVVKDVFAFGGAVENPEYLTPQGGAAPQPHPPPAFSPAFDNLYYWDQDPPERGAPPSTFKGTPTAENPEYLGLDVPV
# BT-474 [2] = assay: Antiproliferative activity against human BT-474 cells assessed as inhibition of cell growth; format: functional, cell-based
# BT-474 [3] = assay: Antitumor activity against human BT-474 expressing erbB2 cells xenografted bearing female athymic nu-nu CD-1 mouse assessed as reduction in tumor erbB2 receptor phosphorylation at 100 mg/kg, po bid administration and measured at 40 day by ELISA method relative to control; format: functional; parameters: scale not given: the % may be the effect or the level left
# MCF7 = assay: Antiproliferative activity against human MCF7 cells assessed as inhibition of cell growth; format: functional, cell-based
# [4] = Antitumor activity against human erbB2 transfected FRE cells xenografted bearing female athymic nu-nu CD-1 mouse assessed as reduction in tumor erbB2 receptor phosphorylation, po administration by ELISA method; format: functional, organism-based
# BT-474 [5] = assay: Antitumor activity against human BT-474 high expressing erbB2 cells xenografted bearing female athymic nu-nu CD-1 mouse assessed as inhibition in tumor growth at 100 mg/kg, po bid administrated for 8 to 40 days relative to control; format: functional; details: time 8-40 day
# [6] = Antiproliferative activity against human KPL-1 cells assessed as inhibition of cell growth; format: functional, cell-based
# BT-474 [7] = assay: Antitumor activity against human BT-474 expressing erbB2 cells xenografted bearing female athymic nu-nu CD-1 mouse assessed as inhibition in tumor growth at 50 to 100 mg/kg, po bid administration and measured at 4 day; format: functional, organism-based; details: dose 50-100 mg/kg
# BT-474 [8] = assay: Antitumor activity against human BT-474 expressing erbB2 cells xenografted bearing female athymic nu-nu CD-1 mouse assessed as decrease in tumor growth at 30 mg/kg, po bid administration and measured at 14 day; format: functional, organism-based
# MDA-MB-231 = assay: Antitumor activity against human MDA-MB-231 low expressing erbB2 cells xenografted bearing female athymic nu-nu CD-1 mouse assessed as inhibition in tumor growth at 100 mg/kg, po bid administrated for 14 to 31 days relative to control; format: functional; details: time 14-31 day
# MDA-MB-453 [9] = assay: Antitumor activity against human MDA-MB-453 expressing erbB2 cells xenografted bearing female athymic nu-nu CD-1 mouse assessed as inhibition in tumor growth at 100 mg/kg, po bid administration and measured at 29 day relative to control; format: functional; details: MDA-MB-453, 696 h
# MDA-MB-453 [10] = assay: Antitumor activity against human MDA-MB-453 expressing erbB2 cells xenografted bearing female athymic nu-nu CD-1 mouse assessed as reduction in tumor erbB2 phosphorylation at 100 mg/kg, po bid administration and measured at 29 day by ELISA method relative to control; format: functional; parameters: scale not given: the % may be the effect or the level left
# BT-474 [11] = assay: Antitumor activity against human BT-474 expressing erbB2 cells xenografted bearing female athymic nu-nu CD-1 mouse assessed as inhibition in tumor growth at 30 mg/kg, po bid administration and measured at 40 day relative to control; format: functional; details: BT-474, 960 h
# CAMA-1 = assay: Antiproliferative activity against human CAMA-1 cells assessed as inhibition of cell growth; format: functional, cell-based
# UACC-812 = assay: Antiproliferative activity against human UACC-812 cells assessed as inhibition of cell growth; format: functional, cell-based
# [12] = biological target: T1, Receptor tyrosine-protein kinase erbB-2; assay: Inhibition of human erbB2 intracellular domain transfected in mouse NIH3T3 cells assessed as potency reduction in autophosphorylation of the chimera erbB2 incubated for 2 hrs in the presence of EGF stimulation by westernblot analysis; format: cell-based
# T47D = assay: Antiproliferative activity against human T47D cells assessed as inhibition of cell growth; format: functional, cell-based
# BT-474 [13] = assay: Antitumor activity against human BT-474 expressing erbB2 cells xenografted bearing female athymic nu-nu CD-1 mouse assessed as inhibition in tumor growth at 1 mg/kg, po bid administration and measured at 40 day relative to control; format: functional; details: BT-474, 960 h
# [14] = Antitumor activity against human erbB2 transfected FRE cells xenografted bearing female athymic nu-nu CD-1 mouse assessed as inhibition in tumor growth at 50 mg/kg, po QD administrated for 8 to 40 days relative to control; format: functional; details: time 8-40 day
# MDA-MB-468 = assay: Antiproliferative activity against human MDA-MB-468 cells assessed as inhibition of cell growth; format: functional, cell-based
# MDA-MB-157 = assay: Antiproliferative activity against human MDA-MB-157 cells assessed as inhibition of cell growth; format: functional, cell-based
# [15] = Toxicity in human erbB2 transfected FRE cells xenografted bearing female athymic nu-nu CD-1 mouse assessed as mortality at 50 mg/kg, po QD administrated for 8 to 40 days; format: organism-based; details: in vivo, time 8-40 day
# MDA-MB-453 [16] = assay: Antitumor activity against human MDA-MB-453 high expressing erbB2 cells xenografted bearing female athymic nu-nu CD-1 mouse assessed as inhibition in tumor regression at 100 mg/kg, po bid administrated for 8 to 40 days relative to control; format: functional; details: time 8-40 day
# BT-474 [17] = assay: Antitumor activity against human BT-474 high expressing erbB2 cells xenografted bearing female athymic nu-nu CD-1 mouse assessed as reduction in tumor phospho-Akt level at 100 mg/kg, po after 0.5 hrs administration by western blot analysis relative to control; format: functional; parameters: scale not given: the % may be the effect or the level left
# BT-474 [18] = assay: Antitumor activity against human BT-474 high expressing erbB2 cells xenografted bearing female athymic nu-nu CD-1 mouse assessed as reduction in tumor phospho-Akt level at 30 mg/kg, po after 0.5 hrs administration by western blot analysis relative to control; format: functional; parameters: scale not given: the % may be the effect or the level left
# [19] = Cmax in human erbB2 transfected FRE cells xenografted bearing female athymic nu-nu CD-1 mouse at 50 mg/kg, po QD administrated for 8 to 40 days by liquid chromatography-tandem mass spectrometry analysis; format: ADME, organism-based; details: in vivo, time 8-40 day
# [20] = Antiproliferative activity against human EFM-192A cells assessed as inhibition of cell growth; format: functional, cell-based
# BT-474 [21] = assay: Antitumor activity against human BT-474 expressing erbB2 cells xenografted bearing female athymic nu-nu CD-1 mouse assessed as tumor regrowth at 30 mg/kg, po bid administration and measured at 40 day; format: functional, organism-based
# [22] = Average plasma concentration (0 to 4 hrs) in human erbB2 transfected FRE cells xenografted bearing female athymic nu-nu CD-1 mouse at 50 mg/kg, po QD administrated for 8 to 40 days by liquid chromatography-tandem mass spectrometry analysis; format: ADME, organism-based; details: in vivo, time 8-40 day
# BT-474 [23] = assay: Antitumor activity against human BT-474 high expressing erbB2 cells xenografted bearing female athymic nu-nu CD-1 mouse assessed as reduction in tumor phospho-Erk level at 30 to 100 mg/kg, po after 0.5 hrs administration by western blot analysis relative to control; format: functional; parameters: scale not given: the % may be the effect or the level left; details: dose 30-100 mg/kg
compound,measurement,setting,value
COCC(=O)NC/C=C/c1ccc2ncnc(Nc3ccc(Oc4ccc(C)nc4)c(C)c3)c2c1 [CP-724714],IC50,EFM-19,> 10000 nM
same,IC50,SK-BR-3,950 nM
same,IC50,[1],10 nM
same,IC50,BT-474 [2],250 nM
same,Activity,BT-474 [3],81%
same,IC50,MCF7,9800 nM
same,EC50,[4],1 µg/mL
same,inhibition in vivo at 100 mg/kg,BT-474 [5],83%
same,IC50,[6],> 10000 nM
same,inhibition,BT-474 [7],Active
same,Activity,BT-474 [8],Active
same,inhibition in vivo at 100 mg/kg,MDA-MB-231,46%
same,inhibition in vivo at 100 mg/kg,MDA-MB-453 [9],83%
same,Activity,MDA-MB-453 [10],69%
same,inhibition in vivo at 30 mg/kg,BT-474 [11],81%
same,IC50,CAMA-1,> 10000 nM
same,IC50,UACC-812,1900 nM
same,IC50,[12],32 nM
same,IC50,T47D,2400 nM
same,inhibition in vivo at 1 mg/kg,BT-474 [13],41%
same,inhibition in vivo at 50 mg/kg,[14],~50%
same,IC50,MDA-MB-468,> 10000 nM
same,IC50,MDA-MB-157,> 10000 nM
same,Activity,[15],Non-Toxic
same,inhibition in vivo at 100 mg/kg,MDA-MB-453 [16],83%
same,Activity,BT-474 [17],70%
same,Activity,BT-474 [18],42%
same,Cmax,[19],4500 ng/mL
same,IC50,[20],960 nM
same,Activity,BT-474 [21],Active
same,Cave,[22],1300 ng/mL
same,Activity,BT-474 [23],~75%
